Tests used:
[1] = target: GABA-A receptor; anion channel; experiment: (§1) Binding affinity for Diazepam-Sensitive fraction of GABA-A benzodiazepine receptors; type: protein-complex assay
[2] = target: GABA-A receptor; anion channel; experiment: Binding affinity for Diazepam-Insensitive fraction of GABA-A benzodiazepine receptors; type: protein-complex assay, Rattus norvegicus
[3] = target: T1, GABA-A receptor; anion channel (Rattus norvegicus) (UniProt O09028+P15431+P18506+P18508+P19969+P20236+P23574+P23576+P28471+P28473+P30191+P62813+P63079+P63138+Q91ZM7+Q9ES14); experiment: GABA shift ratio at Diazepam sensitive fraction of GABA-A benzodiazepine receptor; type: protein-complex assay
[4] = target: T1, GABA-A receptor; anion channel (Rattus norvegicus); experiment: Selectivity for Diazepam insensitive compared to sensitive GABA-A benzodiazepine receptor fractions; type: protein-complex assay
[5] = target: GABA-A receptor; anion channel; experiment: as §1; type: protein-complex assay, Rattus norvegicus
[6] = target: GABA-A receptor; anion channel; experiment: Inhibition of Diazepam-Insensitive faction of GABA-A benzodiazepine receptors; type: protein-complex assay, Rattus norvegicus
[7] = target: GABA-A receptor; anion channel; experiment: Inhibition of Diazepam-Insensitive fraction of GABA-A benzodiazepine receptors; type: protein-complex assay, Rattus norvegicus

## CCC(CC)OC(=O)c1ncn2c1CN(C)C(=O)c1cc(Cl)ccc1-2
[1]
  Ki: 26.9 nM
[2]
  Ki: 123 nM
[3]
  GABA shift: 158
[4]
  Ratio: 4.6

## CCOC(=O)c1ncn2c1CN(C)C(=O)c1ccccc1-2 [RO-147437]
[5]
  Ki: 1.3 nM
[2]
  Ki: 214 nM
[3]
  GABA shift: 98
[4]
  Ratio: 165

## CN1Cc2c(C(=O)OC(C)(C)C)ncn2-c2ccc(Cl)cc2C1=O
[1]
  Ki: 4 nM
[2]
  Ki: 1.7 nM
[3]
  GABA shift: 116
[4]
  Ratio: 0.4

## CCOC(=O)c1ncn2c1[C@@H]1CCCN1C(=O)c1ccccc1-2
[1]
  Ki: 0.9 nM
[2]
  Ki: 45 nM
[4]
  Ratio: 50

## COC(=O)c1ncn2c1CN(C)C(=O)c1ccccc1-2
[5]
  Ki: 6.3 nM
[6]
  IC50: > 1000 nM
[3]
  GABA shift: 99

## CN(C)N=Nc1ccc2c(c1)C(=O)N(C)Cc1c(C(=O)OC(C)(C)C)ncn1-2
[5]
  Ki: 3490 nM
[7]
  IC50: > 1000 nM
[3]
  GABA shift: 1.12

## CCCOC(=O)c1ncn2c1CN(C)C(=O)c1sccc1-2
[1]
  Ki: 1.4 nM
[2]
  Ki: 38 nM
[4]
  Ratio: 27

## CN1Cc2c(C(=O)OC(C)(C)C)ncn2-c2ccc(N=C=S)cc2C1=O
[1]
  Ki: 3.7 nM
[2]
  Ki: 2.7 nM
[3]
  GABA shift: 1.35
[4]
  Ratio: 0.73

## CC(C)OC(=O)c1ncn2c1CN(C)C(=O)c1cc(Cl)ccc1-2
[1]
  Ki: 10.5 nM
[2]
  Ki: 8.8 nM
[3]
  GABA shift: 123
[4]
  Ratio: 0.8

## CN1Cc2c(C(=O)OCC3CC3)ncn2-c2ccc(Cl)cc2C1=O
[5]
  Ki: 9.7 nM
[2]
  Ki: 39.8 nM
[3]
  GABA shift: 176
[4]
  Ratio: 4.1

## CN1Cc2c(C(=O)OC(C)(C)C)ncn2-c2ccc(Br)cc2C1=O
[5]
  Ki: 16 nM
[2]
  Ki: 2.8 nM
[3]
  GABA shift: 1.06
[4]
  Ratio: 0.17

## COC(=O)c1ncn2c1CN(C)C(=O)c1cc(Cl)ccc1-2
[2]
  Ki: 124 nM

## CN1Cc2c(C(=O)OC(C)(C)C)ncn2-c2ccc(N=[N+]=[N-])cc2C1=O
[1]
  Ki: 2.1 nM
[2]
  Ki: 0.43 nM
[3]
  GABA shift: 1.76
[4]
  Ratio: 0.2

## CCCOC(=O)c1ncn2c1CN(C)C(=O)c1cc(Cl)ccc1-2
[1]
  Ki: 24.8 nM
[2]
  Ki: 33.3 nM
[3]
  GABA shift: 128
[4]
  Ratio: 1.3

## CN1Cc2c(C(=O)OC(C)(C)C)ncn2-c2ccc(I)cc2C1=O
[1]
  Ki: 7 nM
[2]
  Ki: 1.5 nM
[3]
  GABA shift: 1.22
[4]
  Ratio: 0.21

## CCOC(=O)c1ncn2c1C1CCCN1C(=O)c1cc(Cl)ccc1-2 (stereo not drawn) [RO-145975]
[1]
  Ki: 72 nM
[2]
  Ki: 53 nM
[4]
  Ratio: 0.73

## CN1Cc2c(C(=O)OC(C)(C)C)ncn2-c2ccccc2C1=O
[1]
  Ki: 1.1 nM
[2]
  Ki: 21.2 nM
[3]
  GABA shift: 105
[4]
  Ratio: 19.2

## COC(=O)c1ncn2c1CN(C)C(=O)c1sccc1-2
[1]
  Ki: 0.9 nM
[2]
  Ki: 52 nM
[4]
  Ratio: 57

## CCOC(=O)c1ncn2c1CN(C)C(=O)c1cc(Cl)ccc1-2 [Ro-151310]
[5]
  Ki: 5.4 nM

## CN1Cc2c(C(=O)OCCC(C)(C)C)ncn2-c2ccc(Cl)cc2C1=O
[1]
  Ki: 184 nM
[7]
  IC50: > 1000 nM
[3]
  GABA shift: 201

## CN1Cc2c(C(=O)OC(C)(C)C)ncn2-c2ccc([N+](=O)[O-])cc2C1=O
[5]
  Ki: 14 nM
[2]
  Ki: 10.8 nM
[3]
  GABA shift: 1.46
[4]
  Ratio: 0.77

## CN1Cc2c(C(=O)OC(C)(C)C)ncn2-c2ccsc2C1=O [RO-194603]
[5]
  Ki: 0.2 nM
[2]
  Ki: 2.6 nM
[4]
  Ratio: 13

## CN1Cc2c(C(=O)OCC(C)(C)C)ncn2-c2ccc(Cl)cc2C1=O
[5]
  Ki: 499 nM
[2]
  Ki: 300 nM
[3]
  GABA shift: 177
[4]
  Ratio: 0.67
